Results as given in US11142501B2, “Prodrugs of monomethyl fumarate” (IXCHEL PHARMA, LLC, priority 2019, dated 2021).
Counter-ions that a name gives are not always drawn.

Columns and labels:
[1] = Oral (PO) pharmacokinetics study in SD rat; format: in vivo
Experimental: Exemplary compounds of the present invention were subjected to oral (PO) Pharmacokinetics (PK) study in SD rat and data was compared with parent MMF. 6 overnight fasted male SD rats were dosed with MMF dose of 10 mpk and test compounds at the desired dose level of 10 mpk equivalent of MMF by PO route. Dosing vehicle used was MQ water. Blood was collected at different time points by retro orbital route. Plasma samples were stored at −80° C. for LC-MS analysis. Animals were sacrificed post final blood collection. Dosing and collection was done as per the in vivo protocol given below. PK analysis was done using LC-MS (ABI3200). Data analysis was performed using PRISM software to determine PK parameters such Cmax (the maximum (or peak) serum concentration that a drug achieves in a specified compartment or test area of the body after the drug has been administrated and before the administration of a second dose), Tmax (time at which the Cmax is observed) AUC (definite integral in a plot of drug concentration in blood plasma vs. time), MRT (Mean Residence Time) and t1/2 (The time required for one half of the total amount of a particular substance in a biological system to be degraded by biological processes when the rate of removal is nearly exponential)

[2] = Rat plasma conversion (ex-vivo); format: in vitro ADME
[3] = Stability of prodrugs on storage at RT and RF; format: physicochemical; details: in % (unit assumed); for Stability, value at 0 DAY: 0 day (14 Nov. 2018), dissolved in acetonitrile for analysis; for Stability, value at 7 DAY, RT / Stability, value at 15 DAY, RT: storage at room temp/25° C.; for Stability, value at 7 DAY, RT / Stability, value at 7 DAY, RF / Stability, value at 15 DAY, RT / Stability, value at 15 DAY, RF: acetonitrile for analysis; for Stability, value at 7 DAY, RF / Stability, value at 15 DAY, RF: storage under refrigeration/4° C.
Experimental: Compounds dissolved in ACN for analysis RT: Room temp/25° C. RF: Refrigeration/4° C.

Solubility = format: physicochemical; details: water; compared with monomethyl fumarate

Row | Structure (SMILES) | pharmacokinetics in delivery of monomethyl fumarate (MMF) in comparison with direct administration of MMF ([1]; FIG. 1 legend, in words) | AUC in rat plasma as compared to the parent drug MMF ([1]; SD rat, PO, in words) | T1/2 in rat plasma as compared to the parent drug MMF ([1]; SD rat, PO, in words) | Rat plasma conversion [2] | Stability, value at 0 DAY [3] | Stability, value at 7 DAY, RT [3] | Stability, value at 7 DAY, RF [3] | Stability, value at 15 DAY, RT [3] | Stability, value at 15 DAY, RF [3] | Solubility (Solubility) | conversion in vivo ([1]; in vivo, rat)
1 | CNC(=O)c1ccc[n+](COC(=O)/C=C/C(=O)OC)c1.[I-] [SPR11575, (E)-1-(((4-methoxy-4-oxobut-2-enoyl)oxy)methyl)-3-(methylcarbamoyl) pyridin-1-ium iodide] | enhanced | better enhanced | better enhanced | convert instantly | 97.7 | 97.61 | 97.82 | 97.06 | 97.66 | – | –
2 | COC(=O)/C=C/C(=O)O [MMF, monomethyl fumarate] | – | – | – | – | – | – | – | – | – | highly soluble | –
3 | COC(=O)/C=C/C(=O)OCOC(=O)c1cccnc1 [SPR11577, methyl((nicotinoyloxy) methyl)fumarate] | – | – | – | convert instantly | 99.35 | 99.79 | 99.89 | 100 | 100 | – | –
4 | COC(=O)/C=C/C(=O)OC[n+]1cccc(C(N)=O)c1.[I-] [SPR11574, (E)-3-carbamoyl-1-(((4-methoxy-4-oxobut-2-enoyl)oxy)methyl) pyridin-1-ium iodide] | – | – | – | convert instantly | 97.81 | 97.61 | 97.61 | 97.21 | 97.95 | – | –
5 | COC(=O)/C=C/C(=O)OCOC(=O)c1ccc[n+](C)c1.[I-] [SPR11578, (E)-3-((((4-methoxy-4-oxobut-2-enoyl)oxy)methoxy)carbonyl)-1-methylpyridin-1-ium iodide] | – | – | – | doesn't convert completely | – | – | – | – | – | – | doesn't convert completely
6 | COC(=O)/C=C/C(=O)OC[n+]1cccc(C(=O)N(C)C)c1.[I-] [SPR11576, (E)-3-(dimethylcarbamoyl)-1-(((4-methoxy-4-oxobut-2-enoyl)oxy)methyl)pyridin-1-ium iodide] | – | – | – | convert instantly | 97.68 | 96.97 | 97.7 | 96.28 | 97.82 | – | –
